Results from patent US9527889B2, “RFamide-related peptides and methods thereof” (THE REGENTS OF THE UNIVERSITY OF MICHIGAN, priority 2010, dated 2016).
“Also recorded” adds a separate entry of the source. Residues, ends and D or L forms follow the SMILES beside them. No end group written: not given here.

Key:
mouse heart = assay: Echocardiography in mice after tail-vein injection; assay type: in vivo
Protocol: Echocardiograms were performed as previously described (Boluyl, M. O. Et al. (2004)) according to the recommendations of the American Society of Echocardiography. All echocardiography was performed by one registered echocardiographer. Female C57BL/6 mice were weighed to accurately calculate the amount of peptide delivered per kilogram body weight (kg bw). Animal use for echocardiography was approved by The University of Michigan UCUCA in accordance with university and federal regulatory guidelines. Physiological saline or peptide was intravenously delivered via tail-vein injections to a total volume of 150 μl to achieve 5 μmols or 500 ηmols hRFRP-1/kg bw. Each animal was used only once for an injectant, either physiological saline or peptide (n=4-5). […] Heart rate along with left ventricular end-systolic and end-diastolic dimensions were measured from the two-dimensional sector scans obtained from the parasternal long axis and apical four chamber views using the conventions of the American Society of Echocardiography. […] Left ventricular volumes were measured at end systole (Vols) and end diastole (Vold) and used to calculate stroke volume (SV=Vold−Vols) and ejection fraction (EF %=endocardial SV/endocardial Vold×100). Cardiac output (CO=endocardial SV×heart rate) was calculated from stroke volume and heart rate. […]

[1] = test system: isolated adult rat cardiac myocytes; assay type: cell-based; settings: peptides at 10^−8M or 10^−7M; peak shortening, departure and return velocity
Excerpt: Adult rat and rabbit ventricular cardiac myocytes were isolated as previously described (Westfall, M. V. Et al. (1997), Westfall, M. V. and Borton, A. R. (2003)). Hearts from Sprague-Dawley rats and New Zealand white rabbits were perfused and enzymatically digested to isolate myocytes; the protocol was approved by The University of Michigan University Committee on Use and Care of Animals (UCUCA) in accordance with university and federal regulatory guidelines. Aliquots of isolated ventricular myocytes were plated on laminin-coated glass coverslips in serum-containing Dulbecco's Modified Eagle Media (Invitrogen, CA, US) supplemented with 5% fetal bovine serum, and 50 U/ml penicillin and 50 μg/ml streptomycin (pen/strep; Sigma-Aldrich, MO, US). Two hours later, media was replaced with serum-free M199 (Invitrogen) supplemented with 1.8 mM Ca^2+, 10 mM HEPES, 10 mM glutathione, and pen/strep. Rat myocytes were transferred to a stimulation chamber and electrically paced the day after isolation (Zornik, E. Et al. (1999), Westfall, M. V. Et al. (1997)). Media was changed daily for all myocyte preparations.
Sarcomere shortening was detected using a video-based detection system (IonOptix, MA, USA) as described earlier (Westfall, M. V. and Borton, A. R. (2003)). Rat myocytes were paced at 0.2 Hz and rabbit myocytes were paced at 0.5 Hz or 1.0 Hz for these studies. Recordings were made prior to application of each peptide concentration, the protein kinase C (PKC) inhibitor bisindolylmaleimide-1, (bis-1; CalBiochem/EMD, NJ, US), or media only (control, C) and at 1, 3, 5, 10 and 15 minutes after application of peptide, bis-1, or media. Signal averaged data were analyzed to determine resting sarcomere length, shortening amplitude (peak shortening), shortening rate (departure velocity), and re-lengthening rate (return velocity), as previously described (Westfall, M. V. Et al. (1997), Westfall, M. V. and Borton, A. R. (2003)), in 7-20 myocytes from 3-4 rats for each peptide concentration, bis-1, and media.

[2] = test system: isolated adult rabbit cardiac myocytes; assay: Sarcomere shortening in isolated adult rabbit cardiac myocytes; assay type: cell-based; settings: pacing at 0.5 Hz and 1 Hz
Protocol: FIG. 7. A. Representative sarcomere shortening traces in isolated adult rabbit cardiac myocytes paced at 0.5 Hz. A signal-averaged recording from 10 traces was made in myocytes 1 day after isolation (n=3). Recordings show shortening before and 15 minutes after initiating perfusion with 10^−10 M hRFRP-1 or media (control) at 37° C.
Adult rat and rabbit ventricular cardiac myocytes were isolated as previously described (Westfall, M. V. Et al. (1997), Westfall, M. V. and Borton, A. R. (2003)). Hearts from Sprague-Dawley rats and New Zealand white rabbits were perfused and enzymatically digested to isolate myocytes; the protocol was approved by The University of Michigan University Committee on Use and Care of Animals (UCUCA) in accordance with university and federal regulatory guidelines. […]
Sarcomere shortening was detected using a video-based detection system (IonOptix, MA, USA) as described earlier (Westfall, M. V. and Borton, A. R. (2003)). […] Signal averaged data were analyzed to determine resting sarcomere length, shortening amplitude (peak shortening), shortening rate (departure velocity), and re-lengthening rate (return velocity), as previously described (Westfall, M. V. Et al. (1997), Westfall, M. V. and Borton, A. R. (2003)), in 7-20 myocytes from 3-4 rats for each peptide concentration, bis-1, and media.

| Compound | effect on the hRFRP-1-induced decrease of contractile performance in vivo (mouse heart; given with hRFRP-1, tail-vein injection) | effect on cardiac function in vivo when applied alone (echocardiographic parameters) (mouse heart; tail-vein injection) | character relative to hRFRP-1 on myocyte contractile function (agonist, antagonist, reverse agonist; in words) [1] | arrhythmic beats and after-contractions [2] |
| --- | --- | --- | --- | --- |
| LPLAFamide (LPLAF-NH2) | blocked the effects of hRFRP-1 | slight increase in cardiac function; also recorded: enhances cardiac function | hRFRP-1 antagonist | – |
| CSCC[C@H](N)C(=O)N1CCC[C@H]1C(=O)N[C@@H](Cc1cnc[nH]1)C(=O)N[C@@H](CO)C(=O)N[C@@H](Cc1ccccc1)C(=O)N[C@@H](C)C(=O)N[C@@H](CC(N)=O)C(=O)N[C@@H](CC(C)C)C(=O)N1CCC[C@H]1C(=O)N[C@@H](CC(C)C)C(=O)N[C@@H](CCCNC(=N)N)C(=O)N[C@@H](Cc1ccccc1)C(N)=O [hRFRP-1] (H-MPHSFANLPLRF-NH2) | – | – | – | not observed |
